The text below walks through data of patent US9006440B2, “Furopyridine derivatives” (Merck Patent GmbH, priority 2010, dated 2015).

Series [1] relates to BLNK phosphorylation in Ramos cells. The experiment in a line: BCR crosslinking-induced BLNK phosphorylation (BLNK cell assay). In kind it is cell-based. The following applies: Homo sapiens. Here is the method: 1. BCR Crosslinking-Induced BLNK Phosphorylation
Ramos cells incubated overnight in IMDM medium containing 5% FCS were resuspended in IMDM medium without serum (3.3×10^6 cells/ml). 90 μl of cell suspension (300′000 cells) were incubated with 10 μl of SYK inhibitors (in 3% DMSO) for 20 minutes at 37° C., in 96 well plates. After preincubation with inhibitors, cells were activated with 10 μg/ml of goat antihuman anti-IgM for 10 minutes at 37° C. After stimulation, cells were fixed by addition of 80 μl of 4% paraformaldehyde followed by a 10 minutes incubation at RT and […] in 0.1% Triton X-100 in PBS. BLNK phosphorylation was detected by flow cytometry after staining of the cells with anti-BLNK-pY84-PE antibodies from BD pharmingen, for 45 minutes at RT.
BLNK phosphorylation in CD19^+ peripheral blood mononuclear cells (PBMC) isolated from buffy coats of healthy volunteers was performed using the same protocol and staining the cells with a mixture of anti-BLNK-pY84-PE, anti CD-19 PerCp and Anti-IgM APC antibodies from BD Pharmingen.

For another series, the target named is T1, KDR (Homo sapiens, UniProt P35968).
T1 construct: purchased BPS Bioscience, CA, USA
The experiment in a line: KDR enzymatic assay (Caliper LifeSciences technology). In kind it is biochemical. In short, it runs like this: (§1)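 Off-chip mobility-shift assay measuring conversion of a fluorescently labelled peptide substrate, in 100 mM HEPES pH 7.5, 1 mM DTT, 1 mM MgCl2 and 0.015% Brij-35. Reactions ran 90 min at 25 C and were stopped with EDTA. IC50s were derived from percent-conversion dose-response curves.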

The target in another series is T2, BTK (Homo sapiens, UniProt Q06187).
T2 construct: purchased Carna Bioscience, Kobe, Japan
Briefly: BTK enzymatic assay (Caliper LifeSciences technology). In kind it is biochemical. The protocol:
(§2) The assays described here are performed on the Caliper Life Sciences LC3000 system This technology provides data on enzyme activity via measurement of the relative amounts of phosphorylated or unphosphorylated fluorescently labelled substrate peptide at the end of an enzymatic reaction. These different states of peptide are resolved by applying a potential difference across the sample. The presence of the charged phosphate group on the product (as opposed to the substrate) causes a different peptide mobility between the two peptides. This is visualized by excitation of the fluorescent label on the substrate and product peptides and represented as peaks within the analysis software.
(§3) In order to measure inhibitor activity of kinase inhibitors on this technology, a TTP Mosquito liquid handling instrument is used to place 0.25 ul of the appropriate concentration of inhibitor in 100% DMSO (for a dose response curve calculation) into each well of a 384-well plate. To this reaction components are added to a final volume of 25 ul. The table below indicates the sequences and concentrations for the assays described in this report. Standard components are 1 mM DTT (Sigma, D0632), 1 mM MgCl2 (Sigma, M1028), 100 mM HEPES pH 7.5 (Calbiochem, 391338), 0.015% Brij-35 (Sigma, B4184).
(§4) The reaction is incubated for 90 min at 25 C, and then stopped by the addition of 70 ul of Stop buffer (100 mM HEPES pH 7.5, 0.015% Brij-35, 10 mM EDTA (Sigma, E7889)).
(§5) The plate is read on a Caliper LC 3000 in an Off-Chip mobility shift assay format, on a 12-sipper chip. Unphosphorylated substrate and phosphorylated product peptide resolve as separate peaks allowing direct measurement of percentage of conversion of substrate to product. The percent conversion can be plotted against concentration of inhibitor to produce a sigmoidal dose response curve, from which an IC50 can be calculated using GeneData Condoseo or a similar product.

Another series addresses T3, SRC (Homo sapiens, UniProt P12931).
T3 construct: purchased Carna Bioscience, Kobe, Japan
The experiment in a line: Src enzymatic assay (Caliper LifeSciences technology). In kind it is biochemical. The procedure, abridged:
as §1

The next series addresses T4, Syk (Homo sapiens, UniProt P43405).
T4 construct: purchased BPS Bioscience, CA, USA
Briefly: Syk enzyme assay (SYK flash plate assay / Caliper mobility shift). In kind it is biochemical. In short, it runs like this: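 Flashplate format: 2.5 nM SYK, 400 nM biotinylated peptide, 10 μM ATP with 33P-ATP, pH 7.5, 1 h at 30 °C; radioactivity read, staurosporine background. Caliper format: 90 min at 25 °C, mobility-shift read of substrate-to-product conversion; IC50 from dose-response curve.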

In series [2] the test system is RA Phase II studies in humans. The following applies: cited from earlier work.
The subject of another series is murine model of RA. Particulars: cited from earlier work.
The target in the next series is T5, Zap70 (Homo sapiens, UniProt P43403).
T5 construct: purchased BPS Bioscience, CA, USA
T5 sequence (P43403 1-619): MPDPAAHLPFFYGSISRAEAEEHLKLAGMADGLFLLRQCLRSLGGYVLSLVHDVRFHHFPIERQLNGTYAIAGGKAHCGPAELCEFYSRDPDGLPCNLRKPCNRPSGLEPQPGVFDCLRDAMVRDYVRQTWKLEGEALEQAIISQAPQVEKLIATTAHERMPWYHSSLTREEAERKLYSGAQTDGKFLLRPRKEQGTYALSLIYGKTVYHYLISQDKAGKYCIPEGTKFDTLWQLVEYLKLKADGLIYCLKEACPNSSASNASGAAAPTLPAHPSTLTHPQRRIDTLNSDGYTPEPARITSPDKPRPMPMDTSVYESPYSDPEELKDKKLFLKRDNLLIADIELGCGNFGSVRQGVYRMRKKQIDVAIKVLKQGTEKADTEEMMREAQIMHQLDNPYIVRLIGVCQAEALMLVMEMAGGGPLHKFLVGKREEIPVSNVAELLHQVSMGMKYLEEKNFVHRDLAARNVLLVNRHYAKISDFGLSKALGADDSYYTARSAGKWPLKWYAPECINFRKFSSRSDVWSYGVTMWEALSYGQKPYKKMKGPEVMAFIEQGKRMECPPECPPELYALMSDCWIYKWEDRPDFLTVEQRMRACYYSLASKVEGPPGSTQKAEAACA
Briefly: ZAP-70 enzymatic assay (Caliper LifeSciences technology). Type of series: biochemical. The protocol:
as §2, §3, §4, §5

Each structure is given as a SMILES string.

T2 sequence (Q06187 whole entry): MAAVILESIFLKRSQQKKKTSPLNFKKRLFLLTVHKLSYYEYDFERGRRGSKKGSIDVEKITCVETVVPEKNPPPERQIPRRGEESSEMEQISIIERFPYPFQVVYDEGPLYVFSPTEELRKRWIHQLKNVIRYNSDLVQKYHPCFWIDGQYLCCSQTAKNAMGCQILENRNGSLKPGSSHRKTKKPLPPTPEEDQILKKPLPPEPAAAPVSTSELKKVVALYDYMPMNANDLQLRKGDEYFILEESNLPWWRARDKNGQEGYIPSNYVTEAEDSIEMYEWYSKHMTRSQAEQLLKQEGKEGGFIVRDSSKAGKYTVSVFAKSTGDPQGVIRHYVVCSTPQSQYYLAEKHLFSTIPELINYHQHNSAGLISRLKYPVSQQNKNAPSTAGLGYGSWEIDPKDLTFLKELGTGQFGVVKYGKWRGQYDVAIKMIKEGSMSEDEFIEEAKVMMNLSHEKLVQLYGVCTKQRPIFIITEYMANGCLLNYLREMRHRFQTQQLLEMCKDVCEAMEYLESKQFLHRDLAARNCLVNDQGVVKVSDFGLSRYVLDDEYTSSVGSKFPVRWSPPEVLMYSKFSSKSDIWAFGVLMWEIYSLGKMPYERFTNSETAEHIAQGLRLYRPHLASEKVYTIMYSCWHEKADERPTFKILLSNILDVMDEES
T1 sequence (P35968 20-1356): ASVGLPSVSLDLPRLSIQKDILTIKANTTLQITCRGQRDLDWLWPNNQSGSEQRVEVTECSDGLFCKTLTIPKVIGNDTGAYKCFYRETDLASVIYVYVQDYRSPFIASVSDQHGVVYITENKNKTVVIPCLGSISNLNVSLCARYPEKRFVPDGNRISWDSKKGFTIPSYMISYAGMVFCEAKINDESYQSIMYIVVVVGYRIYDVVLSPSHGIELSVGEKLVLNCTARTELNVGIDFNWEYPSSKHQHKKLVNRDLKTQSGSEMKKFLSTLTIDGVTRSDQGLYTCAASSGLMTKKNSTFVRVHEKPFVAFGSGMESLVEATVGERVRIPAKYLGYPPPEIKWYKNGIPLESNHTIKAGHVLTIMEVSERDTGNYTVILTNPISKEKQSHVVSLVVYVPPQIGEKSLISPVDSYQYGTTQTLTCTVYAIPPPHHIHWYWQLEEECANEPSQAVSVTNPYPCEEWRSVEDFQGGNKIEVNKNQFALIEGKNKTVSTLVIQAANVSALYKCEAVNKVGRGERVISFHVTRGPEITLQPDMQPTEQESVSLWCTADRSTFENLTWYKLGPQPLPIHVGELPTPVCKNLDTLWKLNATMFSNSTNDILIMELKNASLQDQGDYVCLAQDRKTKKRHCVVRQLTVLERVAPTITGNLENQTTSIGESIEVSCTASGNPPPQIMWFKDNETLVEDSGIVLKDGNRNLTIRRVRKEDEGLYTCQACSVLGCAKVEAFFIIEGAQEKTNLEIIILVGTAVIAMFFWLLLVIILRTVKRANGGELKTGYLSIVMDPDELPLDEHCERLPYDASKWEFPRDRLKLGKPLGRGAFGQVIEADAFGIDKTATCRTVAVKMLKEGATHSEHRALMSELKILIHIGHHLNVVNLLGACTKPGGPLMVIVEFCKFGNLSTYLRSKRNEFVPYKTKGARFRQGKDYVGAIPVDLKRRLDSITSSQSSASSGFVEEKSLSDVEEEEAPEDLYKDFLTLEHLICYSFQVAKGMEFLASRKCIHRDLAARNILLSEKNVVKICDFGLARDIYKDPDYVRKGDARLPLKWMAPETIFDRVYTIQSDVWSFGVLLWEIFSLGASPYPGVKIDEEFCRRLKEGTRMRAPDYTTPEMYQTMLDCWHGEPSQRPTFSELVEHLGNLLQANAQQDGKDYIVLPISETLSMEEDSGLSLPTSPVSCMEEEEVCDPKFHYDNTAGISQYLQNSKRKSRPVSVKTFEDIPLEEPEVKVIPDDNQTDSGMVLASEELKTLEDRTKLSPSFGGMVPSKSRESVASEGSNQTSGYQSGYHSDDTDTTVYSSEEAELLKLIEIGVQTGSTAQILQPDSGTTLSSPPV
T3 sequence (P12931 whole entry): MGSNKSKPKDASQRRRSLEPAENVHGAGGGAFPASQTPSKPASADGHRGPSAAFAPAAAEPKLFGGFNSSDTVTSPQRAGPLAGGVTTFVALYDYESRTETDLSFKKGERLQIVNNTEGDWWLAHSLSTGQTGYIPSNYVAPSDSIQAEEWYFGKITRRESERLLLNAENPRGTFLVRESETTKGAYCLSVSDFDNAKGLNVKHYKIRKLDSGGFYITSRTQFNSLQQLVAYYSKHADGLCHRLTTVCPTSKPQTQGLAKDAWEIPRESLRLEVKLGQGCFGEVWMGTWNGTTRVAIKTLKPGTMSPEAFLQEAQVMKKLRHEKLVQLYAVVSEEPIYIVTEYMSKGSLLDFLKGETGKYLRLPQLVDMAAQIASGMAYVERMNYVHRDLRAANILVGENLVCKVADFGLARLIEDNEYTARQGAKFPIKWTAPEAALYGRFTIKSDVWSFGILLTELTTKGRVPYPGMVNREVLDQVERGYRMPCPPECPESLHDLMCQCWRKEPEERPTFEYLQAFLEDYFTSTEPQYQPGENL

Turning to `COc1cc(-c2cc3nccc(Nc4ccc5[nH]ccc5c4C)c3o2)cc(OC)c1OC` [Compound B22], the IC50 in series [1] was 3000 to 50000 nM; against KDR it was < 300 nM; on BTK, 0.3 to 3 µM; on SRC, < 300 nM; at Syk, < 300 nM.
In the case of `COc1cc(-c2cc3nccc(-c4ccc5[nH]ccc5c4)c3o2)cc(OC)c1OC` [Compound B74, 7-(1H-Indol-5-yl)-2-(3,4,5-trimethoxyphenyl)furo[3,2-b]pyridine], the IC50 in series [1] was 300 to 3000 nM; against BTK, 3 to 50 µM; on Syk, 300 to 3000 nM.
As for `COc1cc(Nc2ncc(F)c(Nc3ccc4c(n3)NC(=O)C(C)(C)O4)n2)cc(OC)c1OC` [Compound R406], in series [2], the “efficacy (ACR scores)” value is listed as “ACR scores improvement” and the tolerability result was “good tolerability”. Moreover, in the series on murine model of RA, the bone erosion entry is “significantly reduced” and the serum cytokine concentrations result is “significantly reduced”. Also, the clinical scores result with murine model of RA (orally available) is “significant improvement”.
With `COc1cc(-c2cc3nccc(-c4ccccc4)c3o2)cc(OC)c1OC` [Compound A5, 7-Phenyl-2-(3,4,5-trimethoxy-phenyl)-furo[3,2-b]pyridine], the values for the IC50 (in series [1]; at Syk) were 3000 to 50000 nM and < 300 nM, respectively.
Turning to `COc1cc(-c2cc3nccc(-c4ccc5c(c4)NC(=O)C5)c3o2)cc(OC)c1OC` [Compound B71, 6-(2-(3,4,5-Trimethoxyphenyl)furo[3,2-b]pyridin-7-yl)indolin-2-one], the IC50 was 3 to 50 µM against Zap70, 3000 to 50000 nM in series [1], 3000 to 50000 nM at KDR and < 300 nM at Syk.
For the compound `COc1cc(-c2cc3nccc(Nc4ccc5[nH]ccc5c4)c3o2)cc(OC)c1OC` [Compound B30], the IC50 in series [1] was 3000 to 50000 nM; against KDR it was < 300 nM; on BTK, 0.3 to 3 µM; on SRC it was < 300 nM; at Syk it was < 300 nM.

By IC50 is commonly meant the point on the concentration scale where inhibition reaches its midpoint.
